Common to all, as to type: in vivo
The subject of data set [1] is EAE in female C57BL/6J mice. The data set can be described thus: EAE in female C57BL/6J mice, sCT dose levels, Example 3. Conditions: for % Sick / Incidence / Severity / Mean Onset Day: female C57BL/6J mice, standard chow; for Incidence: animals sick/total; for Severity: EAE score 0-5; for Mean Onset Day: days post immunization. An excerpt:
To determine the effect of calcitonin on EAE in C57BL/6J mice (C57BL6 mice from Jackson Labs), female mice were maintained on a standard chow diet prior to and following EAE immunization. The C57BL6J strain was chosen primarily because it is one of the few strains susceptible to MOG-induced EAE, and also because the 1α-KO has been backcrossed into the C57BL6J strain. The diet was changed primarily because the mice being used were wild-type and no longer required the supplemented 1,25(OH)2D3 that the 1α-KO mice do. Additionally, we have typically seen higher incidence rates when animals are maintained on a regular chow diet versus the purified diet.
(§1) EAE was induced as described above. Mice were injected with 200 ng of B. pertussis toxin on the day of immunization and 48 hours later.
(§2) sCT was prepared as described above. One week after immunization, mice were weighed and the pumps were filled with vehicle, 6 μg/kg of sCT per day of body weight or 60 μg/kg of sCT per day of body weight to each mouse. The pumps were surgically placed subcutaneously in the upper back of mice anesthetized with 2% isofluorane. At the end of the study, successful delivery of the sCT was assessed by two methods. First, the fluid volume remaining in the pump reservoirs was measured. Second, the remaining sCT was pooled and intraperitoneally injected into C57BL/6J mice that were not included in the initial study. Serum calcium measurements were taken six hours after injection to determine if sCT maintained its bioactivity throughout the study.
(§3) Mice were examined daily, for over two weeks, for clinical signs of EAE utilizing the following scoring system as described above.
(§4) Blood samples were collected at multiple time-points and prepared and analyzed as described above. Likewise, statistical analysis was as performed as noted above.

For data set [2], the system named is EAE in female C57BL/6J mice. The data set can be described thus: EAE in female C57BL/6J mice, calcitonin and Vit D, Example 4. Conditions: female C57BL6J mice, sCT (30 μg/kg per day), compared to 1 ng Vit D alone (FIG. 5, Table 6). As for the experimental part:
To determine the effect of calcitonin and Vit D on EAE in C57BL/6J mice, female C57BL/6J mice were maintained on standard chow until eight weeks of age, and then switched to a purified diet containing 0.87% calcium supplemented with 1 ng or 30 ng of 1,25-(OH)2D3 for one week prior to EAE immunization.
as §1
as §2, with “vehicle or 30” for “vehicle, 6”, “μg/kg” for “μg/kg of sCT”, “of” for “of body weight or 60 μg/kg of”, “sCT” for “sCT per day”
as §3
(§5) Blood samples were collected at multiple time-points and prepared and analyzed as described above. Likewise, statistical analysis was performed as noted above.

Data set [3] relates to EAE in female C57BL/6J mice. In words: EAE in female C57BL/6J mice, sCT started prior to immunization, Example 5. The protocol: To determine the effect of calcitonin in C57BL/6J mice on EAE prior to immunization, female mice were maintained on a standard chow diet prior to and following EAE immunization.
as §1
as §2, with “However, two days prior to” for “One week after”, “vehicle or” for “vehicle,”, “μg/kg” for “μg/kg of sCT”, “of” for “of body weight or 60 μg/kg of”, “sCT” for “sCT per day”
Mice were examined daily, for over two weeks, for clinical signs of EAE utilizing the scoring system described above.
as §5

A short description of data set [4]: Serum calcium in 1α-OH KO mice, Example 1. As to conditions: 6 μg/kg of calcitonin. The protocol:
Ten days after immunization, mice were weighed and the pumps were filled with either vehicle or sCT diluted to deliver 6 μg/kg of body weight per day to each mouse. The pumps were surgically placed subcutaneously in the upper back of mice anesthetized with 2% isofluorane. At the end of the study, successful delivery of the sCT was assessed by two methods. First, the fluid volume remaining in the pump reservoirs was measured. Second, the remaining sCT was pooled and intraperitoneally injected into 1α-knockout mice that were not included in the initial study. Serum calcium measurements were taken six hours after injection to determine if sCT maintained its bioactivity throughout the study. Blood samples were collected at multiple time-points throughout the study to monitor changes in serum calcium levels. Blood was obtained by the orbital bleed method. Approximately 150 μl was collected per mouse.
(§6) Collected blood samples were centrifuged at 6000 rpm for 15 minutes; followed by another 60-second spin at 14000 rpm. Serum samples were diluted in 0.1% LaCl3 and serum calcium values were measured using a Perkin Elmer atomic absorption spectrometer.

The nature of data set [5]: Serum calcium in female C57BL/6J mice, Example 3. As for the experimental part:
as §6, §4

Consider Salmon calcitonin [sCT], for which the EAE score result is “delayed and diminished the EAE score” in data set [1] (female C57BL6J mice administered 60 μg/kg of calcitonin, compared to vehicle alone (FIG. 4, Table 5)); “delayed and diminished the EAE score” in data set [2]; “delayed and diminished the EAE score” in data set [3] (female C57BL6J mice administered 6 μg/kg of calcitonin from two days prior to immunization, compared to vehicle alone (FIG. 6)). In addition, the “% Sick” value in data set [1] (6 μg/kg sCT) is on record as 82.0%; in data set [1] (60 μg/kg sCT), 67.0%; in data set [3] (female C57Bl/6J mice, standard chow, sCT 6 μg/kg per day from two days prior to immunization), 95.0%. Besides, the Incidence in data set [1] (6 μg/kg sCT per day by minipump from one week after immunization) is listed as 9/11 sick; in data set [1] (60 μg/kg sCT per day by minipump from one week after immunization), 6/9 sick; in data set [3] (female C57Bl/6J mice, standard chow, sCT 6 μg/kg per day by minipump from two days prior to immunization, animals sick/total) it was 19/20 sick. For the same substance, the Severity came to 3.8 ± 0.6 in data set [1] (6 μg/kg sCT); 3.5 ± 1.3 in data set [1] (60 μg/kg sCT); 2.9 ± 1.1 in data set [3] (female C57Bl/6J mice, standard chow, sCT 6 μg/kg per day from two days prior to immunization, EAE score 0-5). In addition, the “Mean Onset Day” value in data set [1] (6 μg/kg sCT) came out at 14 ± 3 days; in data set [1] (60 μg/kg sCT), 16 ± 2 days; in data set [3] (female C57Bl/6J mice, standard chow, sCT 6 μg/kg per day from two days prior to immunization, days post immunization), 15 ± 2 days. The serum calcium levels entry in data set [4] (female 1α-OH KO mice) is “generally unaffected”; in data set [4] (male 1α-OH KO mice), “unaffected”; in data set [5] (6 μg/kg of calcitonin) it was “initially lowered”; in data set [5] (60 μg/kg of calcitonin), “initially lowered”.
